Source: US6060462A, “Electrophilic peptide analogs as inhibitors of trypsin-like enzymes” (DuPont Pharmaceuticals Company, priority 1997, dated 2000)
pIC50, pKi: −log10 of the molar value. Counter-ions that a name gives are not always drawn. Like-named read-outs stand apart in the source and are kept apart here.

Legend:
human factor Xa = biological target: T1, human factor Xa (Homo sapiens, UniProt P00742); experiment: Inhibition of Factor Xa hydrolysis of chromogenic substrate S2222 (Ki); assay type: biochemical; details: purified human factor Xa, 0.10 M sodium phosphate buffer
T1 construct: 0.2-0.5 nM human thrombin or human factor Xa; purchased Enzyme Research Laboratories, South Bend, Ind
Protocol: (§1) The effectiveness of compounds of the present invention as inhibitors of blood coagulation proteases was determined using purified human proteases and synthetic substrates following procedures similar to those described in Kettner et al. (1990).
(§2) For these assays, the rate of enzymatic (thrombin, Factor Xa, and Factor VIIa) hydrolysis of chromogenic substrates (S2238 (H-D-Phe-Pip-Arg-pNA), S2222, and S2288, respectively; Kabi Pharmacia, Franklin, Ohio) was measured both in the absence and presence of compounds of the present invention. […] A decrease in the rate of absorbance change at 405 nm in the presence of inhibitor is indicative of enzyme inhibition. The results of this assay are expressed as inhibitory constant, Ki.
(§3) Thrombin and Xa determinations were made in 0.10 M sodium phosphate buffer, pH 7.5, containing 0.20 M NaCl, and 0.5% PEG 8000. VIIa determinations were made in 0.05 M tris buffer, pH 7.6, containing 0.10 M NaCl, 4 mM CaCl2, and 0.1% bovine serum albumin.
(§4) Reactions were allowed to go for 30 minutes and the velocities (rate of absorbance change vs time) were measured in the time frame of 25-30 minutes. The following relationship was used to calculate Ki values. [formula] where: vo is the velocity of the control in the absence of inhibitor;
(§5) vs is the velocity in the presence of inhibitor;
(§6) I is the concentration of inhibitor;
(§7) Ki is the dissociation constant of the enzyme: inhibitor complex;
(§8) S is the concentration of substrate;
(§9) Km is the Michaelis constant.

human factor VIIa = biological target: T2, human factor VIIa (Homo sapiens, UniProt P08709); experiment: Inhibition of Factor VIIa hydrolysis of chromogenic substrate S2288 (Ki); assay type: biochemical; details: purified human factor VIIa, 0.05 M tris buffer; for pKi: pH 7.6, read-out: Ki values for inhibition of Serine Proteases: Factor VIIa; for Ki values for inhibition of Serine Proteases: Factor VIIa: pH 7.6
T2 construct: 50 nM human factor VIIa (BiosPacific, Emeryville, Calif.); purchased BiosPacific, Emeryville, Calif
T2 sequence (P08709 213-466 limits assumed): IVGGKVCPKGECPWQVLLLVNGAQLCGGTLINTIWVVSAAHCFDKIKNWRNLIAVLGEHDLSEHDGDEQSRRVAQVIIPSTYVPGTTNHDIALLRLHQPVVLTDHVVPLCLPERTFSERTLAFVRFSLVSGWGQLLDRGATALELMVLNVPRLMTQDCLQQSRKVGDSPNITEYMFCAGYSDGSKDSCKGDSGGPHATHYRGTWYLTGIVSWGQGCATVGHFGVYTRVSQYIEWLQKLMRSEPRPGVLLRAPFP
T2 sequence (P08709 61-212 partner limits assumed): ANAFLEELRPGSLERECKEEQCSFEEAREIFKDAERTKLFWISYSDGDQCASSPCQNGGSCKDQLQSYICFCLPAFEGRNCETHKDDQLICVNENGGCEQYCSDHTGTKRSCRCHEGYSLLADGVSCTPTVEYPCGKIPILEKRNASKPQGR
Protocol: as §1, §2, §3, §4, §5, §6, §7, §8, §9

Thrombin time = Thrombin time (IC50), Table 80
human thrombin = human thrombin (Homo sapiens, UniProt P00734); experiment: Inhibition of thrombin hydrolysis of chromogenic substrate S2238 (Ki); assay type: biochemical; design: 0.2-0.5 nM human thrombin or human factor Xa; purchased Enzyme Research Laboratories, South Bend, Ind; details: purified human thrombin, 0.10 M sodium phosphate buffer, pH 7.5, read-out: Ki values for inhibition of Serine Proteases: Trombin
Protocol: as §1, §2, §3, §4, §5, §6, §7, §8, §9

[1] = pH 7.5, read-out: Ki values for inhibition of Serine Proteases: Factor Xa

T1 sequence (P00742 235-488 limits assumed): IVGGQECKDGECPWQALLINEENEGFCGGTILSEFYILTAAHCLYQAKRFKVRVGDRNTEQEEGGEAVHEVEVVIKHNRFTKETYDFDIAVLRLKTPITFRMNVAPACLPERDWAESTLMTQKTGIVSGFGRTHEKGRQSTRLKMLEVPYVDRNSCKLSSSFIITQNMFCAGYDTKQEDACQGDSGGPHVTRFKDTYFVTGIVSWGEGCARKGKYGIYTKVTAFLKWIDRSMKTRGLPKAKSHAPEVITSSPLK
T1 sequence (P00742 41-179 partner limits assumed): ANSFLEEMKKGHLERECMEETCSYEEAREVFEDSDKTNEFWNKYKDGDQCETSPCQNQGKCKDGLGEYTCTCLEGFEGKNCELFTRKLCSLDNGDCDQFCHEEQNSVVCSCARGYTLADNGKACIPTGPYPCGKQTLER

For “2-(Thiophenyl)-Benzoyl-Sar-boroOrn(CH=NH)-C10H16 HCl [Example 63.4.1]”, the pKi (human factor Xa; [1]) was greater than 6.30, the pKi (human factor VIIa) was greater than 4.30 and the pIC50 (Thrombin time) was greater than 6.30. For the same compound, the pKi (human thrombin) was greater than 6.30.
In the case of “2-Benzyl-(N-Benzyl)-Sar-boroLys--C10 H16 HCl [Example 64.1.1]”, the pKi (human factor Xa; [1]) was greater than 4.30, the pKi (human factor VIIa) was greater than 4.30 and the “IC50 Thrombin time” value (Thrombin time) was “Inactive”. It also gave a pKi (human thrombin) greater than 6.30.
With “2-Thiophenyl-Benzoyl-Sar-boroLys(CH=NH)-C10H16 [Example 63.4.2]” the pKi (human factor Xa; [1]) was greater than 6.30, the pKi (human factor VIIa) was greater than 4.30 and the pIC50 (Thrombin time) was greater than 4.30. It also gave a pKi (human thrombin) greater than 6.30.
For N=CNCCCC(NC(=O)CN(CCc1ccccc1)C(=O)CCc1ccccc1)B(O)O (centres unmarked) [Example 49.1.3, Hydrocinnamoyl-[N-(Phenethyl)-Gly]-boroOrn(CH=NH)--OH HCl], the pKi (human factor Xa; [1]) was greater than 6.30, the pIC50 (Thrombin time) was greater than 6.30 and the pKi (human thrombin) was greater than 6.30.
Compound CN=C(N)NCCCC(NC(=O)CN(CCc1ccccc1)C(=O)CCc1ccccc1)B1OC2CC3CC(C3(C)C)C2(C)O1 (centres unmarked) [Example 49.2.1, Hydrocinnamoyl-[N-(Phenethyl)-Gly]-boroArg(CH3)-C10H16 HCl] has a pKi (human factor Xa; [1]) greater than 6.30, a pIC50 (Thrombin time) greater than 4.30 and a pKi (human thrombin) greater than 6.30.
With Cc1cccc(CCN(CC(=O)NC(CCCCN)B(O)O)C(=O)CCc2ccccc2)c1 (centres unmarked) [Example 52.1.2, Hydrocinnamoyl-[N-(3-methylphenethyl)-Gly]-boroLys--OH hydrochloride salt] the pKi (human factor Xa; [1]) was greater than 6.30, the pKi (human factor VIIa) was greater than 4.30 and the pIC50 (Thrombin time) was greater than 6.30. It also gave a pKi (human thrombin) greater than 6.30.
For CC(C)(CN(CC(=O)NC(CCCCN)B(O)O)C(=O)CCc1ccccc1)c1ccccc1 (centres unmarked) [Example 53.1.1, Hydrocinnamoyl-[N-(2,2-dimethyl)-phenethyl-Gly]-boroLys--OH hydrochloride salt], the pKi (human factor Xa; pH 7.5, hydrochloride salt, read-out: Ki values for inhibition of Serine Proteases: Factor Xa) was greater than 6.30, the pKi (human factor VIIa) was greater than 6.30 and the pIC50 (Thrombin time) was greater than 6.30. For the same compound, the pKi (human thrombin) was greater than 6.30.
With CN(c1ccccc1)N(CC(=O)NC(CCCCN)B1OC2CC3CC(C3(C)C)C2(C)O1)C(=O)CCc1ccccc1 (centres unmarked) [Example 54.2.1, Hydrocinnamoyl-[N-(N-(Methyl)-Phenyl)-Gly]-boroLys-C10H16 HCl] the pIC50 (Thrombin time) was greater than 4.30 and the pKi (human thrombin) was greater than 6.30.
Compound NCCCCC(NC(=O)CN(C(=O)CCc1ccccc1)C1CC1)B(O)O (centres unmarked) [Example 59.4.2, Hydrocinnamoyl-[N-(Cyclopropyl)-Gly]-boroLys--OH HCl] has a pKi (human factor Xa; [1]) greater than 4.30, a pIC50 (Thrombin time) greater than 6.30 and a pKi (human thrombin) greater than 6.30.
CN(CC(=O)NC(CCCCN)B1OC2CC3CC(C3(C)C)C2(C)O1)Cc1ccccc1Cn1cccc1 (centres unmarked) [Example 64.1.3, Pinanediol N-{N-methyl-N-[2-(pyrrol-1-ylmethyl)-Benzyl]glycyl}-1-amido-5-aminopentaneboronate, hydrochloride salt] showed a pIC50 (Thrombin time) greater than 4.30 and a pKi (human thrombin) greater than 6.30.
CN(CC(=O)NC(CCCCN)B(O)O)Cc1ccccc1Cn1cccc1 (centres unmarked) [Example 65.1.3, N-{N-methyl-N-[2-(pyrrol-1-ylmethyl)-Benzyl]glycyl}-1-amido-5-aminopentaneboronic acid, hydrochloride salt] showed a pIC50 (Thrombin time) greater than 4.30 and a pKi (human thrombin) greater than 6.30.
With NCCCCC(NC(=O)CN(C(=O)COc1ccccc1)C1CC1)B(O)O (centres unmarked) [Example 78.1.2, Phenoxyacetyl-[N-(Cyclopropyl)-Gly]-boroLys--OH HCl] the pIC50 (Thrombin time) was greater than 6.30 and the pKi (human thrombin) was greater than 6.30.
In the case of NCCCCC(NC(=O)CN(C(=O)Cc1cccs1)C1CC1)B(O)O (centres unmarked) [Example 78.1.3, Thiophenacetyl-[N-(Cyclopropyl)-Gly]-boroLys--OH HCl], the pIC50 (Thrombin time) was greater than 6.30 and the pKi (human thrombin) was greater than 6.30.
CC1(C)C2CC3OB(C(CCCCN)NC(=O)CN(C(=O)COc4ccccc4)C4CC4)OC3(C)C1C2 (centres unmarked) [Example 79.1.2, Phenoxyacetyl-[N-(Cyclopropyl)-Gly]-boroLys-C10H16 HCl] was tested, and the pIC50 (Thrombin time) was greater than 6.30 and the pKi (human thrombin) was greater than 6.30.
Compound CC1(C)C2CC3OB(C(CCCCN)NC(=O)CN(C(=O)Cc4cccs4)C4CC4)OC3(C)C1C2 (centres unmarked) [Example 79.1.3, Thiophenacetyl-[N-(Cyclopropyl)-Gly]-boroLys-C10H16 HCl] has a pIC50 (Thrombin time) greater than 6.30 and a pKi (human thrombin) greater than 6.30.
“(2-(2-Cyano)-Thiophenyl)-Benzoyl-Sar-boroLys(CH=NH)-C10H16 HCl [Example 62.4.2]” gave a pKi (human factor Xa; [1]) greater than 6.30, a pKi (human factor VIIa) greater than 4.30 and a pKi (human thrombin) greater than 6.30.
With “(2-(2-Cyano)-Thiophenyl)-Benzoyl-Sar-boroOrn(CH=NH)-C10H16 HCl [Example 62.4.1]” the pKi (human factor Xa; [1]) was greater than 6.30, the pKi (human factor VIIa) was greater than 6.30 and the pKi (human thrombin) was greater than 6.30.
In the case of “Hydrocinnamoyl-Sar-Lys(Z)--C(=O)--O-(CH2)2--NH(Z) [Example 61.1.2]”, the “Ki values for inhibition of Serine Proteases: Factor Xa” value (human factor Xa; pH 7.5) was “Inactive”, the “Ki values for inhibition of Serine Proteases: Factor VIIa” value (shortened to “Ki values for inhibition … Factor VIIa”) (human factor VIIa) was “Inactive” and the pKi (human thrombin) was greater than 4.30.
In the case of “Hydrocinnamoyl-Sar-Lys--C(=O)--O--(CH2)2--NH2 2 HCl [Example 61.1.3]”, the pKi (human factor Xa; [1]) was greater than 4.30, the “Ki values for inhibition … Factor VIIa” value (human factor VIIa) was “Inactive” and the pKi (human thrombin) was greater than 4.30.
Compound “Hydrocinnamoyl-Sar-Lys--C(=O)--OCH3 HCl [Example 61.2.1]” has a pKi (human factor Xa; [1]) greater than 4.30, a pKi (human factor VIIa) greater than 4.30 and a pKi (human thrombin) greater than 4.30.
“Hydrocinnamoyl-Sar-Lys[C(O)CO2 H] [Example 61.1.1]” showed a pKi (human factor Xa; [1]) greater than 4.30, a pKi (human factor VIIa) greater than 4.30 and a pKi (human thrombin) greater than 6.30.
“Hydrocinnamoyl-[N-(2,2-(Dimethyl)-Phenethyl)-Gly]-boroOrn(CH=NH)--OH HCl [Example 57.1.1]” was tested, and the pKi (human factor Xa; [1]) was greater than 6.30, the pKi (human factor VIIa) was greater than 6.30 and the pKi (human thrombin) was greater than 6.30.
“Hydrocinnamoyl-[N-(2,2-(Dimethyl)-Phernethyl)-Gly]-boroOrn(CH=NH)-C10H16 HCl [Example 58.1.1]” was tested, and the pKi (human factor Xa; [1]) was greater than 6.30, the pKi (human factor VIIa) was greater than 6.30 and the pKi (human thrombin) was greater than 6.30.
“Hydrocinnamoyl-[N-(2-(Cyclopropyl)-Phenethyl)-Gly]-boroOrn(CH=NH)--OH HCl [Example 57.1.2]” gave a pKi (human factor Xa; [1]) greater than 6.30, a pKi (human factor VIIa) greater than 6.30 and a pKi (human thrombin) greater than 6.30.
“Hydrocinnamoyl-[N-(Cyclopropyl)-Gly]-boroOrn(CH=NH)--OH HCl [Example 57.4.2]” was tested, and the pKi (human factor Xa; [1]) was greater than 4.30, the pIC50 (Thrombin time) was greater than 6.30 and the pKi (human thrombin) was greater than 6.30.
“Hydrocinnamoyl-[N-(N(CH3)2)-Gly]-boroLys--OH HCl [Example 72.1.3]” was tested, and the pIC50 (Thrombin time) was greater than 6.30 and the pKi (human thrombin) was greater than 6.30.
Compound “Hydrocinnamoyl-[N-(N(CH3)2)-Gly]-boroOrn(CH=NH)-C10H16 HCl [Example 50.1.2]” has a pIC50 (Thrombin time) greater than 6.30 and a pKi (human thrombin) greater than 6.30.
“Hydrocinnamoyl-[N-(N-(Methyl)-Benzyl)-Gly]-boroLys--OH HCl [Example 53.2.2]” gave a pKi (human factor Xa; [1]) greater than 6.30, a pKi (human factor VIIa) greater than 6.30 and a pKi (human thrombin) greater than 6.30.
Work on “Hydrocinnamoyl-[N-(N-(Methyl)-Benzyl)-Gly]-boroLys-C10H16 HCl [Example 54.2.2]” yielded a pIC50 (Thrombin time) greater than 4.30 and a pKi (human thrombin) greater than 6.30.
In the case of “Hydrocinnamoyl-[N-(N-(Methyl)-Phenyl)-Gly]-boroLys--OH HCl [Example 53.2.1]”, the pIC50 (Thrombin time) was greater than 4.30 and the pKi (human thrombin) was greater than 6.30.
Compound “Hydrocinnamoyl-[N-(Phenethyl)-Gly]-boroOrn(CH=NH)-C10H16 HCl [Example 49.1.2]” has a pIC50 (Thrombin time) greater than 6.30 and a pKi (human thrombin) greater than 6.30.
In the case of “Pinanediol N-{N-methyl-N-[2-(Thiophenyl)-Benzoyl]Sar}-1-amido-5-thiocyanatobutane boronate [Example 63.5.1]”, the pKi (human factor Xa; [1]) was greater than 4.30, the “Ki values for inhibition … Factor VIIa” value (human factor VIIa) was “inactive” and the pKi (human thrombin) was greater than 4.30.
“[3-(Trifluoromethyl)-Benzyl]-Benzoyl-Sar-boroLys-C10H16 HCl [Example 64.2.2]” gave a pKi (human factor Xa; [1]) greater than 6.30, a pKi (human factor VIIa) greater than 4.30 and a pKi (human thrombin) greater than 6.30.
